Legend:
Type in all cases: cell-based
KG1a cell line = assay: Annexin V/propidium iodide cytotoxicity, KG1a unsorted; details: for LD50: Homo sapiens, KG-1a, Annexin V/propidium iodide, 72 hrs; for cytotoxic potency compared in words: KG1a, versus 8-chloroadenosine or other isomers (FIG. 1, FIG. 7)
Procedure: A further comparative analysis of the toxicity of compounds in the KG1a cell line over an extended dose range was carried out, and the relative effect assessed of the compounds on the leukaemic stem cell compartment within the KG1a cell line, across the entire dose range. Thus, experimental tests were performed on certain compounds of the present invention to assess their ability to target cancer stem cells in a leukaemic cell line. The acute myeloid leukaemia (AML) cell line, KG1a, was employed to assess the relative effect of compounds on the stem cell compartment. The KG1a cell line was selected because it manifests a minor stem cell-like compartment with a distinct immunophenotype (Lin^−/CD34^+/CD38^−/CD123^+).
Cells of the KG1a cell line were maintained in RPMI medium (Invitrogen, Paisley, UK) supplemented with 100 units/ml penicillin, 100 μg/ml streptomycin and 20% foetal calf serum. Cells were subsequently aliquoted (10^5 cells/100 μl) into 96-well plates and were incubated at 37° C. in a humidified 5% carbon dioxide atmosphere for 72 hrs in the presence of nucleoside analogues and their respective nucleotide analogues (known as ProTides) at concentrations that were experimentally determined for each series of compounds. In addition, control cultures were carried out to which no drug was added. Cells were subsequently harvested by centrifugation and were analyzed by flow cytometry using the Annexin V assay.
Cultured cells were harvested by centrifugation and then resuspended in 195 μl of calcium-rich buffer. Subsequently, 5 μl of Annexin V (Caltag Medsystems, Botolph Claydon, UK) was added to the cell suspension and cells were incubated in the dark for 10 mins prior to washing. Cells were finally resuspended in 190 μl of calcium-rich buffer together with 10 μl of propidium iodide. Apoptosis was assessed by dual-colour immunofluorescent flow cytometry as described previously. Subsequently LD50 values (the dose required to kill 50% of the cells in a culture) were calculated for each nucleoside analogue and ProTide.
The data obtained in these experiments were evaluated using one way ANOVA. All data was confirmed as Gaussian or a Gaussian approximation using the omnibus K2 test. LD50 values were calculated from the non-linear regression and line of best-fit analysis of the sigmoidal dose-response curves. All statistical analyses were performed using Graphpad Prism 6.0 software (Graphpad Software Inc., San Diego, Calif.).

MCF7 = assay: MTT cytotoxicity assay, MCF7; details: Homo sapiens, 96 h compound exposure, read-out: absolute IC50, MCF7
Source text: (§1) Lovo: cell line derived from a metastatic site in a patient with colon cancer MCF7: human oestrogen sensitive mammary epithelial cell line PC3: human prostate cancer cell line A549: cancerous lung tissue derived cells L1210: lymphoblast cell line derived from a mouse with lymphocytic leukaemia FM3A: mammary carcinoma murine cells CEM: human T-lymphoblasts, derived from the blood of a patient with acute lymphoblastic leukaemia HeLa: epithelial cells from a patient with cervical adenocarcinoma
(§2) Anti-tumour evaluation in MCF7, LoVo, A549 and PC3 cell lines was performed by MTT assay. Compounds were prepared as 0.1-100 mM stock solutions dissolved in DMSO and stored at −20° C. Cells were seeded into 96-well microtitre plates at a density of 5×10^3 cells per well and allowed 24 hours to adhere. Decimal compound dilutions were prepared in medium immediately prior to each assay (final concentration 0.1-100 μM). Experimental medium was DMEM+10% FCS (PC3 and Lovo) or RPMI+10% heat inactivated FCS (A549 and MCF7). Following 96 h compound exposure at 37° C., 5% CO2, MTT reagent (Sigma Aldrich) was added to each well (final concentration 0.5 mg/ml). Incubation at 37° C. for 4 h allowed reduction of MTT by viable cells to an insoluble formazan product. MTT was removed and formazan solubilised by addition of 10% Triton X-100 in PBS. Absorbance was read on a Tecan Sunrise spectrophotometer at 540 nm as a measure of cell viability; thus inhibition relative to control was determined (IC50).

A549 = assay: MTT cytotoxicity assay, A549; details: Homo sapiens, 96 h compound exposure, read-out: absolute IC50, A549
Source text: as §1, §2

CTS = assay: ATP ViaLight cytotoxicity assay, CTS; details: 72 h
Procedure: HL-60, CTS, and K-562 are leukaemia cell lines, which were obtained from the American Type Culture Collection (ATCC), Middlesex. HL-60 cell line is of acute promyelocytic leukaemia; CTS cell line is of acute myeloid leukaemia; and K-562 cell line is of chronic myeloid leukaemia.
HL-60, CTS, and K-562 cell lines were cultured in RPMI-1640 medium (Sigma Aldrich, UK), which was supplemented with 10% Fetal Bovine Serum (FBS) (PAA Laboratories), 1% amphotericin B (5.5 ml) and 1% penicillin/streptomycin (5.5 ml) (PAA Laboratories) and grown in flasks at 37° C. incubator with 5% CO2.
For inhibitor studies the cell lines were treated in the same way as described above but before treatment with drugs, a number of inhibitors were added: • 1) Nitrobenzylthioinosine (NBTI) (Sigma-Aldrich, St. Louis, Mo.) inhibits hENT1. • 2) A-134974 dihydrochloride hydrate (Sigma-Aldrich, St. Louis, Mo.) inhibits adenosine kinase. • 3) EHNA hydrochloride (Sigma-Aldrich, St. Louis, Mo.) inhibits adenosine deaminase.
[…] For inhibitor studies, 10 M concentration of each inhibitor was added before drugs and incubated for 72 hours at 37° C. with 5% CO2.
After incubation, 50 μl of cell lysis reagent was added to the 96 well plates to release the intracellular ATP, followed by 100 μl of ATP monitoring reagent (AMR). The luminescent values of each well were determined using FLUOstar OPTIMA microplate reader (BMG Labtech) which converted ATP into light by using luciferase enzyme.
The dose-response curves of cytotoxicity of the drugs was determined using non-linear regression analysis of percentage cell viability versus concentration and EC50 values were obtained. The intracellular assay was conducted in five repeats for each condition. Intracellular assay was determined using paired T test (two-tailed) analysis of 8-ChloroATP/ATP concentration and p values were obtained. Drug stability in human plasma was determined using two-way ANOVA analysis. For all the analysis, Prism Software program (GraphPad Software) was used.

[1] = with A-134974 (adenosine kinase inhibitor)

`C[C@H](NP(=O)(OC[C@H]1O[C@@H](n2c(Cl)nc3c(N)ncnc32)[C@H](O)[C@@H]1O)Oc1ccccc1)C(=O)OCc1ccccc1` (mixture of isomers) [C, (2S)-Benzyl 2-(((((2R,3S,4R,5R)-5-(6-amino-8-chloro-9H-purin-9-yl)-3,4-dihydroxy-tetrahydrofuran-2-yl)methoxy)(phenoxy)phosphoryl)amino)propanoate] gave an LD50 (KG1a cell line) of 1.6 µM, an IC50 (MCF7) of 15 to 100 µM and an IC50 (A549) of 15 to 100 µM.
`Nc1ncnc2c1nc(Cl)n2[C@@H]1O[C@H](COP(=O)(NCC(=O)OC2CCCCC2)Oc2ccccc2)[C@@H](O)[C@H]1O` (mixture of isomers) [Compound A, Cyclohexyl 2-(((((2R,3S,4R,5R)-5-(6-amino-8-chloro-9H-purin-9-yl)-3,4-dihydroxy-tetrahydrofuran-2-yl)methoxy)(phenoxy)phosphoryl)amino)acetate] gave an EC50 (CTS; [1]) of 28 µM, an EC50 (CTS; with NBTI (hENT1 inhibitor)) of 270 µM and an IC50 (MCF7) of 15 to 100 µM. It also gave an IC50 (A549) of 15 to 100 µM.
With `Nc1ncnc2c1nc(Cl)n2[C@@H]1O[C@H](COP(=O)(NCC(=O)OCc2ccccc2)Oc2ccccc2)[C@@H](O)[C@H]1O` (mixture of isomers) [Compound B, Benzyl 2-(((((2R,3S,4R,5R)-5-(6-amino-8-chloro-9H-purin-9-yl)-3,4-dihydroxytetra-hydrofuran-2-yl)methoxy)(phenoxy)phosphoryl)amino)acetate] the EC50 (CTS; Control (no inhibitor)) was 16.3 µM, the EC50 (CTS; with NBTI (hENT1 inhibitor)) was 63.9 µM and the LD50 (KG1a cell line) was 7.1 µM. It also gave an IC50 (MCF7) of 15 to 100 µM and an IC50 (A549) of 5 to 15 µM.
For `Nc1ncnc2c1nc(Cl)n2[C@@H]1O[C@H](CO)[C@@H](O)[C@H]1O` [8-chloroadenosine, 8-Chloroadenosine, reference compound], the EC50 (CTS; Control (no inhibitor)) was 0.32 µM, the EC50 (CTS; with NBTI (hENT1 inhibitor)) was 5.48 µM and the IC50 (MCF7) was 0.1 to 5 µM. The IC50 (A549) was 0.1 to 5 µM.
`Nc1ncnc2c1nc(Cl)n2[C@@H]1O[C@H](COP(=O)(NCC(=O)OCc2ccccc2)NCC(=O)OCc2ccccc2)C(O)C1O` (some centres unmarked) [Compound AC, 8-Chloroadenosine 5′-O-bis(benzyloxy-glycin-N-yl) phosphate] was tested, and the “cytotoxic potency compared in words” value (KG1a cell line) was “not as cytotoxic as Isomer A of Compound B”.
Molecule `C[C@H](NP(=O)(OC[C@H]1O[C@@H](n2c(Cl)nc3c(N)ncnc32)C(O)C1O)Oc1cccc2ccccc12)C(=O)OCc1ccccc1` (stereo partly drawn) [Compound D, (2S)-Benzyl 2-(((((2R,3S,4R,5R)-5-(6-amino-8-chloro-9H-purin-9-yl)-3,4-dihydroxy-tetrahydrofuran-2-yl)methoxynaphthalene-1-yloxy)phosphoryl)amino)propanoate] has an EC50 (CTS; Control (no inhibitor)) of 2.64 µM, an EC50 (CTS; [1]) of 10.3 µM and an EC50 (CTS; with NBTI (hENT1 inhibitor)) of 1.46 µM. The LD50 (KG1a cell line) was 3.8 µM and the “cytotoxic potency compared in words” value (KG1a cell line) was “significantly (P<0.0001) more cytotoxic”.
In the case of `CCCCCOC(=O)[C@H](C)NP(=O)(OC[C@H]1O[C@@H](n2c(Cl)nc3c(N)ncnc32)C(O)C1O)Oc1cccc2ccccc12` (stereo partly drawn) [Compound E, (2S)-Pentyl 2-(((((2R,3S,4R,5R)-5-(6-amino-8-chloro-9H-purin-9-yl)-3,4-dihydroxy-tetrahydrofuran-2-yl)methoxnaphthalene-1-yloxy)phosphoryl)amino)propanoate], the LD50 (KG1a cell line) is reported as 20 µM and the “cytotoxic potency compared in words” value (KG1a cell line) is reported as “less potent than 8-chloroadenosine”.
`CC(C)C[C@H](NP(=O)(OC[C@H]1O[C@@H](n2c(Cl)nc3c(N)ncnc32)C(O)C1O)Oc1ccccc1)C(=O)OCc1ccccc1` (stereo partly drawn) [V, 5′-([(Benzyloxy-L-leucin-N-yl)-phenyl]-phosphatyl) 8-chloroadenosine] gave an IC50 (MCF7) of 0.1 to 5 µM and an IC50 (A549) of 0.1 to 5 µM.
